Measurements: PubChem BioAssay (NCI)
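In this assay, cells in 96-well plates receive the compound at five concentrations for 48 hours. Endpoints are linearly interpolated between the surrounding concentrations. Abbreviation: GI50, concentration required for 50% inhibition of growth. At the TGI there is no net growth.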

Tests used:
Test in all cases: NCI anticancer screen, dose series, 48 h
CCRF-CEM leukemia = system: CCRF-CEM leukemia
OVCAR-4 ovarian = system: OVCAR-4 ovarian
OVCAR-5 ovarian = system: OVCAR-5 ovarian
HCC-2998 colon = system: HCC-2998 colon
ACHN renal = system: ACHN renal
A549 NSCLC = system: A549 NSCLC
UO-31 renal = system: UO-31 renal
MDA-MB-435 = system: MDA-MB-435
HL-60(TB) leukemia = system: HL-60(TB) leukemia
U251 CNS = system: U251 CNS
K-562 leukemia = system: K-562 leukemia
EKVX NSCLC = system: EKVX NSCLC
RPMI-8226 leukemia = system: RPMI-8226 leukemia
DU-145 prostate = system: DU-145 prostate
OVCAR-3 ovarian = system: OVCAR-3 ovarian
NCI/ADR-RES ovarian = system: NCI/ADR-RES ovarian
NCI-H522 lung = system: NCI-H522 lung
PC-3 prostate = system: PC-3 prostate
SNB-19 CNS = system: SNB-19 CNS
OVCAR-8 ovarian = system: OVCAR-8 ovarian
SF-539 CNS = system: SF-539 CNS
SW-620 colon = system: SW-620 colon
MDA-MB-231 breast = system: MDA-MB-231 breast
SF-268 CNS = system: SF-268 CNS
HT29 colon = system: HT29 colon
SF-295 CNS = system: SF-295 CNS
UACC-257 melanoma = system: UACC-257 melanoma
NCI-H460 lung = system: NCI-H460 lung
SK-MEL-2 melanoma = system: SK-MEL-2 melanoma
NCI-H23 lung = system: NCI-H23 lung
TK-10 renal = system: TK-10 renal
SK-MEL-28 melanoma = system: SK-MEL-28 melanoma
KM12 colon = system: KM12 colon
SK-MEL-5 melanoma = system: SK-MEL-5 melanoma
M14 melanoma = system: M14 melanoma
MALME-3M melanoma = system: MALME-3M melanoma
MOLT-4 leukemia = system: MOLT-4 leukemia
HS 578T breast = system: HS 578T breast
UACC-62 melanoma = system: UACC-62 melanoma
SN12C renal = system: SN12C renal
IGROV1 ovarian = system: IGROV1 ovarian
SR leukemia = system: SR leukemia
RXF 393 renal = system: RXF 393 renal
HCT-116 colon = system: HCT-116 colon
MCF7 breast = system: MCF7 breast
SK-OV-3 ovarian = system: SK-OV-3 ovarian
HOP-62 NSCLC = system: HOP-62 NSCLC
HCT-15 colon = system: HCT-15 colon
T-47D breast = system: T-47D breast
CAKI-1 renal = system: CAKI-1 renal
A498 renal = system: A498 renal
NCI-H226 lung = system: NCI-H226 lung
786-0 renal = system: 786-0 renal
SNB-75 CNS = system: SNB-75 CNS
COLO 205 colon = system: COLO 205 colon
BT-549 breast = system: BT-549 breast
LOX IMVI melanoma = system: LOX IMVI melanoma
HOP-92 NSCLC = system: HOP-92 NSCLC

## COc1cccc(C2C(C#N)=C(N)Oc3cc4c(cc32)OCO4)c1 (centres undefined)
CCRF-CEM leukemia
  GI50: 0.0362 µM
  TGI: 19.9 µM
OVCAR-4 ovarian
  GI50: 0.457 µM
  TGI: > 100 µM
OVCAR-5 ovarian
  GI50: 0.661 µM
  TGI: > 100 µM
HCC-2998 colon
  GI50: 0.0813 µM
  TGI: 2.52 µM
ACHN renal
  GI50: 2.26 µM
  TGI: > 100 µM
A549 NSCLC
  GI50: 0.0649 µM
  TGI: 42.6 µM
UO-31 renal
  GI50: 0.169 µM
  TGI: > 100 µM
MDA-MB-435
  GI50: 0.0162 µM
  TGI: 0.0829 µM
HL-60(TB) leukemia
  GI50: 0.029 µM
  TGI: 0.279 µM
U251 CNS
  GI50: 0.0449 µM
  TGI: 12.1 µM
K-562 leukemia
  GI50: 0.04 µM
  TGI: > 100 µM
EKVX NSCLC
  GI50: 0.28 µM
  TGI: 58.8 µM
RPMI-8226 leukemia
  GI50: 0.0828 µM
  TGI: 29.9 µM
DU-145 prostate
  GI50: 0.0845 µM
  TGI: 2.78 µM
OVCAR-3 ovarian
  GI50: 0.0264 µM
  TGI: 0.0661 µM
NCI/ADR-RES ovarian
  GI50: 0.0299 µM
  TGI: 0.151 µM
NCI-H522 lung
  GI50: 0.0185 µM
  TGI: 0.0715 µM
PC-3 prostate
  GI50: 0.0534 µM
  TGI: 39.5 µM
SNB-19 CNS
  GI50: 0.0682 µM
  TGI: > 100 µM
OVCAR-8 ovarian
  GI50: 0.0956 µM
  TGI: > 36.2 µM
SF-539 CNS
  GI50: 0.0401 µM
  TGI: > 33.1 µM
SW-620 colon
  GI50: 0.0369 µM
  TGI: > 63.2 µM
MDA-MB-231 breast
  GI50: 0.695 µM
  TGI: > 52.1 µM
SF-268 CNS
  GI50: 0.317 µM
  TGI: > 37.8 µM
HT29 colon
  GI50: 0.0417 µM
  TGI: 2.42 µM
SF-295 CNS
  GI50: 0.035 µM
  TGI: 22 µM
UACC-257 melanoma
  GI50: 0.0471 µM
  TGI: 28.1 µM
NCI-H460 lung
  GI50: 0.0438 µM
  TGI: 12.2 µM
SK-MEL-2 melanoma
  GI50: 0.0301 µM
  TGI: 6.77 µM
NCI-H23 lung
  GI50: 0.0694 µM
  TGI: 15.8 µM
TK-10 renal
  GI50: 0.728 µM
  TGI: 48.4 µM
SK-MEL-28 melanoma
  GI50: 0.0813 µM
  TGI: 32.6 µM
KM12 colon
  GI50: 0.0404 µM
  TGI: 4.27 µM
SK-MEL-5 melanoma
  GI50: 0.0332 µM
  TGI: 3.76 µM
M14 melanoma
  GI50: 0.059 µM
  TGI: 16.3 µM
MALME-3M melanoma
  GI50: 0.0501 µM
  TGI: 31.4 µM
MOLT-4 leukemia
  GI50: 0.0745 µM
  TGI: 22.6 µM
HS 578T breast
  GI50: 0.0316 µM
  TGI: 25.5 µM
UACC-62 melanoma
  GI50: 0.0505 µM
  TGI: > 53.8 µM
SN12C renal
  GI50: 0.0778 µM
  TGI: > 46.2 µM
IGROV1 ovarian
  GI50: 0.305 µM
  TGI: 30.8 µM
SR leukemia
  GI50: 0.0291 µM
  TGI: 27.8 µM
RXF 393 renal
  GI50: 0.029 µM
  TGI: 0.0927 µM
HCT-116 colon
  GI50: 0.0459 µM
  TGI: 11 µM
MCF7 breast
  GI50: 0.0351 µM
  TGI: 18.1 µM
SK-OV-3 ovarian
  GI50: 0.0508 µM
  TGI: 4.71 µM
HOP-62 NSCLC
  GI50: 0.0501 µM
  TGI: 27.2 µM
HCT-15 colon
  GI50: 0.0525 µM
  TGI: > 43.5 µM
T-47D breast
  GI50: 0.0502 µM
  TGI: 28 µM
CAKI-1 renal
  GI50: 0.0409 µM
  TGI: 42.6 µM
A498 renal
  GI50: 0.0311 µM
  TGI: 3 µM
NCI-H226 lung
  GI50: 0.0455 µM
  TGI: 2.43 µM
786-0 renal
  GI50: 0.0621 µM
  TGI: 24.1 µM
SNB-75 CNS
  GI50: 0.0275 µM
  TGI: 46.5 µM
COLO 205 colon
  GI50: 0.0492 µM
  TGI: 0.325 µM
BT-549 breast
  GI50: 0.0874 µM
  TGI: 5 µM
LOX IMVI melanoma
  GI50: 0.234 µM
  TGI: 17.2 µM

## C=CCN=C(N/N=C/c1ccc([N+](=O)[O-])o1)NS(=O)(=O)c1cc(C(=O)Nc2ccccc2)c(Cl)cc1SCC(N)=O
CCRF-CEM leukemia
  GI50: 5.73 µM
  TGI: 27.6 µM
OVCAR-4 ovarian
  GI50: 53 µM
  TGI: > 100 µM
OVCAR-5 ovarian
  GI50: > 100 µM
  TGI: > 100 µM
HCC-2998 colon
  GI50: 20.7 µM
  TGI: 40.6 µM
ACHN renal
  GI50: > 100 µM
  TGI: > 100 µM
A549 NSCLC
  GI50: > 100 µM
  TGI: > 100 µM
UO-31 renal
  GI50: > 100 µM
  TGI: > 100 µM
MDA-MB-435
  GI50: 17.9 µM
  TGI: 36.7 µM
U251 CNS
  GI50: 22.9 µM
  TGI: 95.8 µM
K-562 leukemia
  GI50: 9.16 µM
  TGI: 49.8 µM
EKVX NSCLC
  GI50: 22.9 µM
  TGI: > 100 µM
RPMI-8226 leukemia
  GI50: 20.4 µM
  TGI: 55.1 µM
DU-145 prostate
  GI50: 22.4 µM
  TGI: 71.9 µM
OVCAR-3 ovarian
  GI50: 14.7 µM
  TGI: 39.8 µM
NCI/ADR-RES ovarian
  GI50: > 100 µM
  TGI: > 100 µM
NCI-H522 lung
  GI50: 27.8 µM
  TGI: 67.1 µM
PC-3 prostate
  GI50: 33 µM
  TGI: > 100 µM
HOP-92 NSCLC
  GI50: 13.6 µM
  TGI: 52.2 µM
SNB-19 CNS
  GI50: 33.8 µM
  TGI: > 100 µM
OVCAR-8 ovarian
  GI50: 29.6 µM
  TGI: > 100 µM
SF-539 CNS
  GI50: 18.8 µM
  TGI: 41.5 µM
SW-620 colon
  GI50: 5.99 µM
  TGI: 37.4 µM
MDA-MB-231 breast
  GI50: 14 µM
  TGI: 50.8 µM
SF-268 CNS
  GI50: 29 µM
  TGI: > 100 µM
HT29 colon
  GI50: 40.8 µM
  TGI: > 100 µM
SF-295 CNS
  GI50: > 100 µM
  TGI: > 100 µM
UACC-257 melanoma
  GI50: 19.5 µM
  TGI: 49 µM
NCI-H460 lung
  GI50: 69.4 µM
  TGI: > 100 µM
SK-MEL-2 melanoma
  GI50: 16.1 µM
  TGI: 45.3 µM
NCI-H23 lung
  GI50: 20.9 µM
  TGI: 49.6 µM
TK-10 renal
  GI50: 51.8 µM
  TGI: > 100 µM
SK-MEL-28 melanoma
  GI50: 37.6 µM
  TGI: > 100 µM
KM12 colon
  GI50: 17.1 µM
  TGI: 32.5 µM
SK-MEL-5 melanoma
  GI50: 5.45 µM
  TGI: 18.3 µM
M14 melanoma
  GI50: 69.8 µM
  TGI: > 100 µM
MOLT-4 leukemia
  GI50: 13.4 µM
  TGI: 43.9 µM
HS 578T breast
  GI50: 15.6 µM
  TGI: 66.3 µM
UACC-62 melanoma
  GI50: 17.3 µM
  TGI: 33.3 µM
SN12C renal
  GI50: 29 µM
  TGI: > 100 µM
IGROV1 ovarian
  GI50: 32.2 µM
  TGI: 97.3 µM
RXF 393 renal
  GI50: 24.8 µM
  TGI: > 100 µM
HCT-116 colon
  GI50: 20.2 µM
  TGI: 49 µM
MCF7 breast
  GI50: 25.2 µM
  TGI: 77.6 µM
SK-OV-3 ovarian
  GI50: > 100 µM
  TGI: > 100 µM
HOP-62 NSCLC
  GI50: 53.9 µM
  TGI: > 100 µM
HCT-15 colon
  GI50: > 100 µM
  TGI: > 100 µM
T-47D breast
  GI50: 23.1 µM
  TGI: > 100 µM
CAKI-1 renal
  GI50: > 100 µM
  TGI: > 100 µM
A498 renal
  GI50: 77.8 µM
  TGI: > 100 µM
NCI-H226 lung
  GI50: 30.8 µM
  TGI: > 100 µM
786-0 renal
  GI50: 63.7 µM
  TGI: > 100 µM
SNB-75 CNS
  GI50: > 100 µM
  TGI: > 100 µM
COLO 205 colon
  GI50: 6.55 µM
  TGI: > 100 µM
BT-549 breast
  GI50: 10.4 µM
  TGI: 31.8 µM
LOX IMVI melanoma
  GI50: 17 µM
  TGI: 42.1 µM
